Experimental data reported in publication PMC3231940, “Disposition, metabolism and mass balance of [^14C]apremilast following oral administration” (Xenobiotica; the Fate of Foreign Compounds in Biological …, 2011).
“And” between values parts separate entries of the source, which are not always exact repeats. Identical values can stand only once.

Assay: Metabolite profiling by HPLC radiochromatography in plasma, urine and faeces
Format: in vivo, human
Protocol: Individual plasma samples collected from all subjects at 0.5, 1, 2.5, 8, 24, 36 and 48 h post-dose were analysed for metabolite profiling. A pooled sample (equal volume from 0.5,1,2.5,8 and 24 h) from subject 1 was also used for metabolite profiling. Three volumes of acetonitrile were added to each sample, followed by mixing and centrifu-gation. The supernatant was removed and the pellet was washed twice with acetonitrile. The combined superna-tants were evaporated to dryness under a stream of nitrogen. The residues were re-suspended in acetonitrile: 1% formic acid in water (1:1), assayed for extraction recovery and analysed for metabolite profiling.
For each subject, urine samples were pooled using an equal percentage by volume of the 0-4, 4-8, 8-12 and 12-24-h samples. The 24-48-h urine sample from each subject and a pool of the 0-168-h urine samples from subject 1 were also analysed for metabolite profiling. Samples were mixed and centrifuged prior to the supernatants being transferred to fresh tubes for metabolite profiling analysis.
Faecal homogenates for metabolite profiling were pooled using an equal percentage by weight to generate two pools (0-48 h and 48-96 h) for each subject. An additional pool (0-168 h) was prepared using the samples collected from subject 1. An aliquot (approximately 6 g) of each pool was extracted with three volumes of acetonitrile; samples were mixed and centrifuged. The supernatant was removed and the pellets were extracted twice with an additional 12 mL of acetonitrile each time. The combined supernatants were evaporated to dryness under a stream of nitrogen and the residue was re-suspended in a small volume (approximately 400 μL) of acetonitrile: 1% formic acid in water (1:1). Samples were assayed for extraction recovery prior to metabolite profiling.
HPLC analysis for metabolite profiling was performed using a Shimadzu LC-10ADVP (Shimadzu Corp., Columbia, MD) or a Waters 2695 Alliance Separation Module (Waters Corp., Milford, MA) with the autosampler set to an ambient temperature of approximately 22°C. ASPD-10A VPUV-Vis Detector or a Waters 996 Photodiode array detector set to 254 nm was used to detect UV absorbance. [^14C]Apremilast and metabolites were separated using a Phenomenex Luna C 18(2) column (150 × 4.6 mm, 3 μm; Phenomenex, Torrance, CA) equipped with a RP-18 guard column (15×3.2 mm, 7 μm) or using an ACE 3 C18 column (150 × 4.6 mm, 3 μm; Advanced Chromatography Technologies, Aberdeen, Scotland) equipped with an ACE 3 guard column (10×3mm, 3 μm). The mobile phases used were 0.4% formic acid in water; pH 3.2 with ammonium hydroxide (mobile phase A) and acetonitrile (mobile phase B). The column temperature was 30°C and the flow rate was 0.7mL/min. The linear gradient was delivered as follows: 0-5 min to 100% A; 5-20 min to 85% A; 20-30 min hold at 85% A; 30-50 min to 65% A; 50-60 min to 60% A; 60-70 min to 50% A; 70-75 min to 0% A; hold at 0% A until 80 min; return to initial conditions over 2 min.
Radioactivity profiles for excreta were determined by radiochromatography using liquid chromatography-accurate radioisotope counting stop-flow system (LC-ARC; AIM Research Company, Wilmington, DE). Radioactivity was detected using a β-Ram Radioflow detector (IN/US Systems, Brandon, FL) equipped with a 1300-μL liquid cell. Liquid scintillation cocktail and column eluate were mixed at a ratio of 2.5:1. Radioactive peaks were quantified using LC-ARC data handling software. Plasma radioactivity profiles were determined by collecting the column eluate into 96-well Deepwell LumaPlates at a rate of 0.25 min/fraction. The plates were dried and the radioactivity in each well determined using a PerkinElmer TopCount NXT Microplate Scintillation Counter. HPLC radiochromatograms were reconstructed using LC-ARC data handling software.
Pharmacokinetic data were generated by non-compartmental analysis of plasma or whole blood versus time profiles using WinNonlin (version 4.1, Enterprise Edition). […]

[1] = radiochromatography, single oral 20-mg dose, mean ± SD

Q: With `CCOc1cc([C@@H](CS(C)(=O)=O)N2C(=O)c3cccc(NC(C)=O)c3C2=O)ccc1OC` [Apremilast, (+)-N-[2-[(lS)-1-(3-ethoxy-4-methoxyphenyl)-2-(methylsulfonyl)ethyl]-1,3-dioxo-2,3-dihydro-lH-isoindol-4-yl]acetamide] as the molecule, how does the “Plasma (% AUC relative to TRA); share of circulating radioactivity” value (AUC0-t (unchanged drug or metabolite)/AUC0-48 (TRA) * 100%) read?
A: Its value is 45% and 44.8%.

Q: And the “Plasma exposure (AUC) relative to total radioactivity” value (based on radiochromatography)?
A: Its value is “approximately 40%”.

Q: What about the “% of dose excreted, faeces” value (faeces collected up to 96-h post-dose) of the same molecule?
A: Its value is 4 % of dose and 4.1 % of dose.

Q: And the half-life (human, plasma, radiochromatography, single oral 20-mg dose, mean ± SD, read-out: Plasma t½ (converted))?
A: The half-life was 7.1 ± 2.7 h.

Q: And the Tmax (male, human, plasma, radiochromatography, single oral 20-mg dose, median and range)?
A: The Tmax was 1.8 h.

Q: What about the “Plasma Cmax” value (plasma radioactivity concentrations and radiochromatography, single oral 20-mg dose, mean ± SD) of the same molecule?
A: Its value is 321±134 ngEq/mL.

Q: What about the “Plasma AUC0-t” value [1] of the same molecule?
A: Its value is 2455±690 ngEq*h/mL.

Q: What about the “Plasma AUC0-∞” value [1] of the same molecule?
A: Its value is 2636±705 ngEq*h/mL.

Q: What about the “% of dose excreted, urine” value (urine collected up to 48-h post-dose) of the same molecule?
A: The value was 2.8 % of dose.
